From patent US8324166B2, “Neuroprotection using NAP-like and SAL-like peptide mimetics” (Ramot at Tel-Aviv University, Ltd., priority 2007, dated 2012)
Where “and” joins values, the source holds several entries; their conditions need not be identical. Equal entries are not always repeated. Ends that are not written are not given here.

Legend:
[1] = system: neurons in mixed neuroglial cultures intoxicated with beta-amyloid 1-42; assay: MAP2 assay: neuronal survival in mixed neuroglial cultures following beta-amyloid intoxication; type: cell-based, rat
Procedure: Newborn rats were used to prepare cerebral cortical astrocytes cell cultures as described above. After suspending the cells in D1, they were centrifuged at 100 g for 5 minutes and the supernatant discarded. The cell pellet was resuspended in solution D2 containing 5% heat inactivated horse serum (Biological Industries, Beit Haemek, Israel), 0.1% gentamycin, 0.1% penicillin-streptomycin-nystatin, 1% N3 (defined medium components essential for neuronal development in culture, (Romijn HJ, Brain Res., 254:583-9 (1981)]), 15 μg/ml 5′-fluoro-2-deoxyuridine (FUDR, Sigma, Rehovot, Israel), and 3 μg/ml uridine (Sigma, Rehovot, Israel) in DMEM. Cells were counted in a hemocytometer, diluted in D2 and 17,000 cells/well/96 well plate were seeded on 8-day-old astrocytes prepared as described above. The medium was changed the next day to D2 without FUDR and uridine. Cells were allowed to grow for one week at 37° C. 10% CO2 before experiments were performed.
Neuronal survival in neuroglial cultures following beta-amyloid intoxication was assayed using the neuron specific antibody, MAP2. […] The cells were incubated for 5 days in 10% CO2 at 37°C.
5 days after the addition of beta-amyloid and the peptide, the cells were fixed by removing the media from each well and the addition of cold methanol. The cells were left in the refrigerator overnight. The cells were immunostained with anti-MAP2 as previously described (Brooke S M et al., Neurosci. Lett., 267:21-4(1999)): the methanol was removed and the cells were washed 4 times with phosphate buffered saline (PBS). Blocking for non-specific antibody binding was performed by incubating the cells in 5% non-fat milk in PBS overnight at 4° C. The blocking solution was then removed and anti-MAP2(1:1000; Sigma, Rehovot, Israel) was added to each well. The cells were incubated for 30 minutes at room temperature, followed by 4 washes with PBS. Biotinylated anti-mouse IgG (1:200, Vector Laboratories, Burlingame, Calif., USA) was then added to each well, and the cells were incubated for 30 minutes at room temperature followed by 4 washes with PBS. The cells were incubated at room temperature for 30 minutes with the ABC reagent (Vector Laboratories, Burlingame, Calif., USA) prepared according to the manufacturer's protocol and then washed 4 times with PBS. ABTS reagent, prepared according to the manufacturer's protocol (Vector Laboratories, Burlingame, Calif., USA) was then added to each well and the cells were incubated for 20 minutes in the dark at room temperature. The plates were read in an ELISA plate reader at 405nm. As blanks, wells containing untreated cells and no primary antibody were used.

[2] = system: cerebral cortical astrocytes intoxicated with ZnCl2; assay: MTS assay: survival of astrocytes following intoxication with ZnCl2; type: cell-based, mice
Procedure: Cell cultures were prepared as previously described (McCarthy KD, de Vellis J., J. Cell Biol., 85:890-902 (1980); Gozes I et al., J. Pharmacol. Exp. Ther., 257:959-66 (1991)). Newborn mice (Harlan Biotech Israel Ltd., Rehovot, Israel) were sacrificed by decapitation and the brain was removed. The cortex was dissected and meninges were removed. The tissue was minced with scissors and placed in Hank's balanced salts solution X1 (HBSS, Biological Industries, Beit Haemek, Israel), 15 mM HEPES Buffer pH 7.3 (Biological Industries, Beit Haemek, Israel) and 0.25% trypsin (Biological Industries, Beit Haemek, Israel) in an incubator at 37° C. 10% CO2 for 20 minutes. The cells were then placed in 8 ml of solution D1 containing 10% heat inactivated fetal calf serum (Biological Industries, Beit Haemek, Israel), 0.1% gentamycin sulphate solution (Biological Industries, Beit Haemek, Israel) and 0.1% penicillin-streptomycin-nystatin solution (Biological Industries, Beit Haemek, Israel) in Dulbecco's modified Eagle's medium (DMEM, Sigma, Rehovot, Israel). The cells were allowed to settle, and were then transferred to a new tube containing 2.5 ml of D1 and triturated using a Pasteur pipette. The process was repeated twice more. Once all the cells were suspended, cell density was determined using a hemocytometer (Neubauer improved, Germany) and 1×10^6 cells/15 ml D1 were inoculated into each 75 cm^2 flask (Corning, Corning, N.Y., USA). Cells were incubated at 37° C. 10% CO2. The medium was changed after 24 hours and cells were grown until confluent (one week).
The flasks containing the cerebral cortical astrocytes were shaken to dislodge residual neurons and oligodendrocytes that may be present. Flasks were then washed with 10 ml cold HBSSx1, HEPES15 mM. 5 ml versene-trypsin solution (BioLab, Jerusalem, Israel) was added to each flask and the flasks were incubated at room temperature for 5 minutes to remove astrocytes. The flasks were then shaken to dislodge the cells. The versene-trypsin solution was neutralized with 5 ml D1. The cell suspension was collected and centrifuged at 100 g for 10 minutes. The supernatant was removed and the cells resuspended in D1. The cells were plated in 96 well plates (Corning, Corning, N.Y., USA) (each flask to 2 plates) and incubated until confluent at 37° C. 10% CO2.
The survival of astrocytes following intoxication with ZnCl2 was tested using the MTS assay. One week after sub-culturing the astrocytes into 96-well plates, the astrocyte growth medium was aspirated and fresh medium containing 200μM ZnCl2 and ascending concentrations of NATLSHIHQ (SEQ ID NO:4) or STPTAIPQ (SEQ ID NO:6)(concentration range: 10^−16-10^−7M) was added to the cells. The cells were incubated for 4 hours in 10% CO2 at 37°C., followed by an MTS assay using Celltiter 96 Aqueous non-radioactive cell proliferation assay (Promega, Madison, WI, USA) which was performed according to the manufacturer's instructions and read in an ELISA plate reader at 490nm.

[3] = system: neurons of the central nervous system; details: in vitro assays and in vivo disease models; cited from earlier work
[4] = in vivo; cited from earlier work
[5] = system: normal aging rats; details: intranasal administration; cited from earlier work
[6] = system: ischemic injury; details: after ischemic injury; cited from earlier work
[7] = system: animal models simulating parts of the Alzheimer's disease pathology; details: in vivo; cited from earlier work
[8] = target: beta III tubulin (Homo sapiens, UniProt Q13509); details: affinity chromatography; cited from earlier work
Sequence of beta III tubulin (Q13509 whole entry): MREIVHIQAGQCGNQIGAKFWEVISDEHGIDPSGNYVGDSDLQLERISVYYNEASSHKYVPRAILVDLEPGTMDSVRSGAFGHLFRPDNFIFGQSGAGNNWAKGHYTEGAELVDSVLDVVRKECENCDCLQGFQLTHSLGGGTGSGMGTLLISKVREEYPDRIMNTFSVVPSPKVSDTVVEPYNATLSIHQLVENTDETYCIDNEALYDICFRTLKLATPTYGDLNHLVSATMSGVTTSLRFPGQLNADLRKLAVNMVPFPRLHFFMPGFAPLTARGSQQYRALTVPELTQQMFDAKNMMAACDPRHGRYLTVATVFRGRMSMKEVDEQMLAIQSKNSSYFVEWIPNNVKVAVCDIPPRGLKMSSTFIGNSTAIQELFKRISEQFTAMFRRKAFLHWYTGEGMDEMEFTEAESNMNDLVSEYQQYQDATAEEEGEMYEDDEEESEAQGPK
Sequence of beta III tubulin (Q71U36 whole entry partner): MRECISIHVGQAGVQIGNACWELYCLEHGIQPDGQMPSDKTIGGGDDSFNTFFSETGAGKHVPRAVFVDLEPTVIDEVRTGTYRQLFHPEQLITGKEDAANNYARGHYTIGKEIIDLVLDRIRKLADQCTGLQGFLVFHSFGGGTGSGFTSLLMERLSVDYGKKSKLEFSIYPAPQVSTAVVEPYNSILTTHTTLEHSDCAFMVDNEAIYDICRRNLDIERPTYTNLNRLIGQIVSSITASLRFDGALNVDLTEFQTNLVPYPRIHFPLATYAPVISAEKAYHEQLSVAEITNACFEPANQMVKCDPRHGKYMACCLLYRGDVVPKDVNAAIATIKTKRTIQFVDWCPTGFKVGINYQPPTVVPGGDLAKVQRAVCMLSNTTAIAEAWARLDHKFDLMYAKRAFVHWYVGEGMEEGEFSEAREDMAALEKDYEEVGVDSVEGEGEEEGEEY

[9] = system: cell cultures exposed to a wide variety of toxins; details: against a wide variety of toxins; cited from earlier work
[10] = system: model of fetal alcohol syndrome; details: in vivo, ip; cited from earlier work
[11] = system: closed head injury in mice; details: cited from earlier work

## STPTAIPQ (synthetic NAP-like peptide)
[1]; MAP2 assay, 5 days, tested 10^−19M to 10^−5M, significance vs negative control in cell
  effective concentrations on neuronal survival: Neurons (25 μM beta-amyloid): 10^−13 M and 10 ^−5 M
[1]; neuroglial cells, beta-amyloid
  activity in neuroprotection assay: active
[2]; MTS assay, 4 hours, tested 10^−16-10^−7M, significance vs negative control in cell
  effective concentrations on astrocyte survival: Astrocytes (200 μM ZnCl2): 10^−7 (p < 0.05) M
[2]; astrocytes, ZnCl2
  activity in neuroprotection assay: active

## SALLRSIPA
[3]
  neuron survival in response to various insults: keep neurons of the central nervous system alive

## Asn-Ala-Pro-Val-Ser-Ile-Pro-Gln [NAP]
[4]
  crossing of the blood-brain barrier: can cross the blood-brain barrier
[5]
  performance in the Morris water maze: improved performance
[6]
  infarct volume and motor function deficits: reduced infarct volume and motor function deficits
[7]
  protection in Alzheimer's disease models: protective
[8]
  interaction with tubulin: specifically interact with beta III tubulin
[9]
  neuroprotective activity in cell cultures: neuroprotective activity at femtomolar concentrations
[10]
  fetal death after intraperitoneal injection of alcohol: inhibited
[11]
  damage caused by closed head injury: reducing damage
